Test results reported in patent US20080095754A1, “OPHTHALMIC COMPOSITIONS COMPRISING DIGLYCINE” (priority 2006, published 2008).
Residues, ends and D or L forms follow the SMILES beside them.

Tests used:
[1] = system: lysozyme; experiment: Far-UV circular dichroism (CD) thermal melting of lysozyme in formulated solutions; assay type: physicochemical; settings: for change of lysozyme Tm, CD: glycerin 1%, trehalose 1% and 5%, alone; for reversibility of thermal denaturation / refolding of lysozyme, CD: second scan
Description: (§1) To evaluate the effect of diglycine on the conformational stability of lysozyme, Formulations 1 and 2 as well as a formulation without diglycine were analyzed by differential scanning calorimetry (DSC) and circular dichroism (CD). Before DSC and CD analysis, a lysozyme solution was prepared in borate buffer, pH 7.3 (sodium borate, 0.09%; boric acid, 0.85%; sodium chloride, 0.22%) at a concentration of 5 mg/mL, and was dialyzed against the formulated solutions containing 0, 1 (Formulation 1), and 3% (Formulation 2) diglycine, at 2-8° C. for 16 hours. Thermal scans were preformed twice to investigate the reversibility of thermal unfolding for both DSC and CD. This study examines the values of melting temperature (Tm), unfolding enthalpies (ΔH), and the ability of the lysozyme to refold upon unfolding for each of the three formulations because these parameters, in general, predict the thermostability of a protein and approximates the susceptibility of a protein to aggegrate and other irreversible changes at lower temperatures.
CD spectra were conducted on a Jasco-810 Spectropolarimeter. The far-UV CD studies were preformed in a 1-mm pathlength cell at a protein concentration of 0.2 mg/mL, using a scan rate of 50 nm/min from 190 nm to 260 nm and a scan rate of 1° C./min from 20° C. to 95° C. The melting temperatures and the unfolding enthalpies were determined from the denaturation curved obtained from the dependency of the mean residue ellipticity at 230 nm on temperature.
A second experiment screened the additives glycerin, trehalose, and hyaluronic acid (HA) in combination with 1% diglycine, for their ability to stabilize the conformation of lysozyme. VP-DSC and CD were again used to measure the melting temperatures (Tm), unfolding enthalpies (ΔH), and the ability to refold the lysozyme upon unfolding.
Before DSC and CD analysis, the lysozyme solution was prepared in a borate buffer, pH 7.3 (sodium borate, 0.09%; boric acid, 0.85%; sodium chloride, 0.22%) at a concentration of 5 mg/mL. It was then dialyzed against the formulated solutions containing either 1% glycerin, 1% trehalose, 5% trehalose, 1% diglycine and 3% glycerin, or 1% diglycine and 3% trehalose, at 2-8° C. for 16 hours. For the hyaluronic acid formulation, the lysozyme solution was dialyzed against the borate buffer, and subsequently diluted to the desired concentrations with 0.2% of hyaluronic acid for analyses. Thermal scans were performed twice to investigate the reversibility of thermal unfolding for both methods.
The VP-DSC results are supported by the circular dichroism (CD) spectral measurements which were conducted as a function of temperature on a Jasco-810 Spectropolarimeter. The far-UV CD studies were performed in a 1-mm pathlength cell at a protein concentration of 0.2 mg/mL, and a scan rate of 1° C./min form 20° C. to 95° C. The melting temperatures and the Van't Hoff enthalpies were determined from denaturation curves obtained from the mean residue ellipticity at 230 nm as a function of temperature. Tables 2 and 3 summarize the results of the CD measurements and FIGS. 13-18 show the CD-thermal scans.

[2] = system: lysozyme; experiment: VP-DSC thermal unfolding of lysozyme in formulated solutions; assay type: physicochemical; settings: for reversibility of thermal denaturation / refolding of lysozyme, VP-DSC: second scan; for increase in the melting temperature of lysozyme: in both VP-DSC and CD
Description: as §1
For the DSC analysis, thermograms were obtained on a VP-DSC (Microcal, USA) at a scan rate of 90° C. per hour from 10° C. to 95° C. All samples were diluted with the formulated solutions to a concentration of 0.5 mg/mL, and degassed for 4 minutes using a vacuum. The thermograms were corrected for the baseline signal and normalized for protein concentration. Using a non-2-state unfolding model, the Tm and the ΔH were determined by Origin software. […]

Compound	change of lysozyme Tm, CD [1]	reversibility of thermal denaturation / refolding of lysozyme, CD [1]	change of lysozyme Tm, VP-DSC [2]	reversibility of thermal denaturation / refolding of lysozyme, VP-DSC [2]	increase in the melting temperature of lysozyme ([2]; 1% w/w diglycine vs borate buffer)	increase in the melting temperature of lysozyme ([2]; 3% w/w diglycine vs borate buffer)
OCC(O)CO [glycerin]	did not increase	partial refolding phenomenon	did not increase	not able to refold	–	–
OC[C@H]1O[C@H](O[C@H]2O[C@H](CO)[C@@H](O)[C@H](O)[C@H]2O)[C@H](O)[C@@H](O)[C@@H]1O [trehalose]	did not increase	not able to refold	did not increase	not able to refold	–	–
NCC(=O)NCC(=O)O [diglycine] (H-Gly-Gly-OH)	–	at least partially reversible	–	at least partially reversible	approximately 2 °C	~4 °C
